Values of other authors as cited in patent US10059967B2, “Microorganisms and processes for producing terephthalic acid and its salts” (Genomatica, Inc., priority 2012, dated 2018).

## Cc1ccc(C(=O)O)cc1 [p-toluate, 4-methylbenzoate]
  solubility in aqueous solution (in words): Only slightly soluble
